Laboratory results reported in patent publication EP4631938A1, “NITROGEN-CONTAINING HETEROCYCLE WITH SEROTONIN RECEPTOR-BINDING ACTIVITY AND CARBOCYCLIC DERIVATIVE” (Shionogi & Co., Ltd, priority 2022, dated 2024).

Legend:
[1] = molecular target: T1, human recombinant 5-HT2A receptor (Homo sapiens, UniProt P28223); assay: Test Example 1-2: 5-HT2A receptor binding inhibition test ([3H]-Ketanserin; non-specific ligand Ketanserin); conditions: [3H]-Ketanserin; non-specific binding with 500 µmol/L Ketanserin; room temperature (25°C), 1.5 hours; read-out: h 5-HT2A Ki
T1 construct: expressed in transfected cells; host or cells: Jump-In HEK cells (membrane preparation)
Protocol: The Kd value is calculated when the lot of the cell membrane is changed. 1 mmol/L non-specific binding calculating compound dissolved in DMSO or DMSO is previously dispensed to the microplate by 0.5 µL, and the cell membrane is diluted with an Assay buffer. The radioactive ligand solution is diluted step by step, and counts are checked with a liquid scintillator. The Assay buffer containing diluted cell membranes is dispensed by 50 µL/well into the microplate. The radioactive ligand solution is then dispensed by 50 µL/well into the microplate and the plate is sealed. The microplate is allowed to stand for 1.5 hours at room temperature (25°C). During this time, 50 mmol/L Tris-HCl (pH 7.4) is dispensed by 50 µL/well into the UniFilter plate and allowed to stand at 4°C for 1 hour or longer. Thereafter, filtration is performed with a Cell Harvester (PerkinElmer). The radioactive ligand solution is dispensed by 10 µL/well into empty wells of the UniFilter plate. After drying the UniFilter plate at room temperature, MicroScinti20 is dispensed by 50 µL/well into the UniFilter plate, and the plate is sealed. UniFilter plate is allowed to stand at room temperature overnight. The radioactivity of [^3H]-Ketanserin bound to the 5-HT2A receptor is measured using Microbeta2 (PerkinElmer) at a measurement time of 1 min/well. The Saturation curve is drawn from the measured value, and the Kd value is calculated from the slope of the Scatchard Plot.
A compound solution dissolved in DMSO is dispensed to a microplate by 0.5 µL, and a cell membrane and a hot ligand are each diluted with an Assay buffer. The Assay buffer containing diluted cell membrane is then dispensed by 50 µL/well into the microplate. The radioactive ligand solution is then dispensed by 50 µL/well into the microplate and the plate is sealed. Thereafter, the microplate is allowed to stand at room temperature (25°C) for 1.5 hours. During this time, 50 mmol/L Tris-HCl (pH 7.4) is dispensed by 50 µL/well into the UniFilter plate and allowed to stand at 4°C for 1 hour or longer. Thereafter, filtration is performed with a Cell Harvester (PerkinElmer). After drying the UniFilter plate at room temperature, MicroScinti20 is dispensed by 50 µL/well into the UniFilter plate, and the plate is sealed. UniFilter plate is allowed to stand at room temperature overnight. The radioactivity of [^3H]-Ketanserin bound to the 5-HT2A receptor is measured using Microbeta2 (PerkinElmer) at a measurement time of 1 min/well. Non-specific binding is calculated from the radioactivity of [^3H]-Ketanserin in the presence of 500 µmol/L Ketanserin of unlabeled ligand, and total binding is calculated from the radioactivity of [^3H]-Ketanserin in the absence of the compound of the present invention (Vehicle). Finally, the Ki value is calculated from the dose-response curve.
(§1) (The binding activity of the compound according to the present invention is calculated from the following binding inhibition rate (%).) Inhibition rate (%) = [1−(c−a)/(b−a)] × 100 [formula] • a; average cpm of non-specific binding • b; average cpm of total binding • c; cpm in the presence of the test compound
(§2) The compounds of the present invention were tested essentially as described above.

[2] = molecular target: T2, human recombinant 5-HT2C receptor (Homo sapiens, UniProt P28335); assay: Test Example 2: 5-HT2C receptor binding inhibition test ([3H]-Mesulergine; non-specific ligand Serotonin HCl); conditions: human serotonin 5-HT2C receptor binding activity
T2 construct: expressed in transfected cells; host or cells: Jump-In HEK cells (membrane preparation)
T2 sequence (P28335 33-458): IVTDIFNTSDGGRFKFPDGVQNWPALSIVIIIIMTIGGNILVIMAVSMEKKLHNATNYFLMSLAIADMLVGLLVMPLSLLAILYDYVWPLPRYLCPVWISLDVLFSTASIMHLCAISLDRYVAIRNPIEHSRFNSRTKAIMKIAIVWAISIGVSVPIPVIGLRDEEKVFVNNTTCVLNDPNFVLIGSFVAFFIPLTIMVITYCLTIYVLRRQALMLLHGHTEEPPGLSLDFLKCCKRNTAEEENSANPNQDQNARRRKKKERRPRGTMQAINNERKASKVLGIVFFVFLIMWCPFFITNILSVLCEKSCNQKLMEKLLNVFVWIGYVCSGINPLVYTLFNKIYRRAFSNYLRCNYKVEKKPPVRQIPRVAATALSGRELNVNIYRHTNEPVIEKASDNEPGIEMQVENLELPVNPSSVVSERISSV
Protocol: The Kd value is calculated when the lot of the cell membrane is changed. 1 mmol/L non-specific binding calculating compound dissolved in DMSO or DMSO is previously dispensed to the microplate by 0.5 µL, and the cell membrane is diluted with an Assay buffer. The radioactive ligand solution is diluted step by step, and counts are checked with a liquid scintillator. The Assay buffer containing diluted cell membranes is dispensed by 50 µL/well into the microplate. The radioactive ligand solution is then dispensed by 50 µL/well into the microplate and the plate is sealed. The microplate is allowed to stand at 37°C for 2 hours. During this time, 50 mmol/L Tris-HCl (pH 7.4) is dispensed by 50 µL/well into the GF/B UniFilter plate and allowed to stand at 4°C for 1 hour or longer. Thereafter, filtration is performed with a Cell Harvester (PerkinElmer). The radioactive ligand solution is dispensed by 10 µL/well into empty wells of the GF/B UniFilter plate. After drying the GF/B UniFilter plate at room temperature, MicroScinti20 is dispensed by 50 µL/well into the GF/B UniFilter plate, and the plate is sealed. GF/B UniFilter plate is allowed to stand at room temperature overnight. The radioactivity of [^3H]-Mesulergine bound to the 5-HT2C receptor is measured using Microbeta2 (PerkinElmer) at a measurement time of 1 min/well. The Saturation curve is drawn from the measured value, and the Kd value is calculated from the slope of the Scatchard Plot.
A compound solution dissolved in DMSO is dispensed to a microplate by 0.5 µL, and a cell membrane and a hot ligand are each diluted with an Assay buffer. The Assay buffer containing diluted cell membrane is then dispensed by 50 µL/well into the microplate. The radioactive ligand solution is then dispensed by 50 µL/well into the microplate and the plate is sealed. The microplate is then allowed to stand at 37°C for 2 hours. During this time, 50 mmol/L Tris-HCl (pH 7.4) is dispensed by 50 µL/well into the GF/B UniFilter plate and allowed to stand at 4°C for 1 hour or longer. Thereafter, filtration is performed with a Cell Harvester (PerkinElmer). After drying the GF/B UniFilter plate at room temperature, MicroScinti20 is dispensed by 50 µL/well into the GF/B UniFilter plate, and the plate is sealed. GF/B UniFilter plate is allowed to stand at room temperature overnight. The radioactivity of [^3H]-Mesulergine bound to the 5-HT2C receptor is measured using Microbeta2 (PerkinElmer) at a measurement time of 1 min/well. Non-specific binding is calculated from the radioactivity of [^3H]-Mesulergine in the presence of 500 µmol/L Serotonin HCl of unlabeled ligand, and total binding is calculated from the radioactivity of [^3H]-Mesulergine in the absence of the compound of the present invention (Vehicle). Finally, the Ki value is calculated from the dose-response curve.
as §1, §2

T1 sequence (P28223 whole entry): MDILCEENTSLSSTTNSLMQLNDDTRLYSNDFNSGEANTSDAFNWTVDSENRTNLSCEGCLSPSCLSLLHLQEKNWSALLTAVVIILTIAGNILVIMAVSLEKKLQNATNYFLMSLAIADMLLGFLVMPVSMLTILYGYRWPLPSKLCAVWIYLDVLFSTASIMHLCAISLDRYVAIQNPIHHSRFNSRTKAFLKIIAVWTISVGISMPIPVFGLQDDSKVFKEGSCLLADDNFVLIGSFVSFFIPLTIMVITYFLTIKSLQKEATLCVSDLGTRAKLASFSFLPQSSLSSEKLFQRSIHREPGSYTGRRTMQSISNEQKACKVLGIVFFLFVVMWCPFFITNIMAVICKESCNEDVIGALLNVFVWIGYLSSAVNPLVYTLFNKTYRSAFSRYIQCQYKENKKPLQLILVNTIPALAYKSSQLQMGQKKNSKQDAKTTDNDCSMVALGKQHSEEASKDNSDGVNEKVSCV

| Compound | Ki [1] [nM] | Ki [2] [nM] |
| --- | --- | --- |
| O=C1NCCc2c1cccc2-c1cc(Nc2ncc(C(F)(F)F)cc2F)ncc1OCCO [Compound I-227] | 1.21 | 26.7 |
| Cn1ncc(Cl)c1-c1cc(Nc2ccc(OC(C)(F)F)cn2)ncc1OCCO [Compound I-229] | 0.28 | 2.22 |
| COCc1nc(C)c(-c2cc(Nc3ncc(-c4ccc(F)cc4)cc3Cl)ncc2OCCO)c(C)n1 [Compound I-230] | 0.576 | 0.372 |
| COCc1nc(C)c(-c2cc(Nc3ncc(OCC(F)(F)F)cc3Cl)ncc2OCCO)c(C)n1 [Compound I-232] | 8.27 | 6.06 |
| COCc1nc(C)c(-c2cc(Nc3ncc(OCC(F)(F)C(F)(F)F)cc3Cl)ncc2OCCO)c(C)n1 [Compound I-233] | 4.42 | 1.76 |
| COCc1nc(C)c(-c2cc(Nc3ncc(-c4ccc(Cl)c(F)c4)cc3Cl)ncc2OCCO)c(C)n1 [Compound I-234] | 0.525 | 0.167 |
| COCc1nc(C)c(-c2cc(Nc3ncc(-n4cc(Cl)cn4)cc3Cl)ncc2OCCO)c(C)n1 [Compound I-236] | 1.24 | 0.727 |
| COCc1nc(C)c(-c2cc(Nc3ncc(-c4cnn(C(F)F)c4)cc3Cl)ncc2OCCO)c(C)n1 [Compound I-237] | 7.43 | 7.37 |
| COCc1nc(C)c(-c2cc(Nc3ncc(-c4cnn(C(F)(F)F)c4)cc3Cl)ncc2OCCO)c(C)n1 [Compound I-243] | 3.58 | 2.53 |
| COCc1nc(C)c(-c2cc(Nc3ncc(-c4ccc(C#N)nc4)cc3Cl)ncc2OCCO)c(C)n1 [Compound I-244] | 3.75 | 2.87 |
| COCc1nc(C)c(-c2cc(Nc3ccc(C(F)(F)F)c(C)n3)ncc2OCCO)c(C)n1 [Compound I-248] | 0.794 | 4.78 |
| COCc1nc(C)c(-c2cc(Nc3ncc(-c4ncc(F)cn4)cc3Cl)ncc2OCCO)c(C)n1 [Compound I-249] | 5.19 | 4.29 |
| COCc1nc(C)c(-c2cc(Nc3ncc(-c4ccc(F)cc4)cc3F)ncc2OCCO)c(C)n1 [Compound I-251] | 0.325 | 0.393 |
| COCc1nc(C)c(-c2cc(Nc3ncc(-c4ncc(F)cc4F)cc3Cl)ncc2OCCO)c(C)n1 [Compound I-252] | 3.95 | 3.17 |

The remaining molecules from weak to strong by Ki [1], led by results:

| Ki [1] [nM] | Ki [2] [nM] | Compound |
| --- | --- | --- |
| 5.85 | 1.41 | COCc1nc(C)c(-c2cc(Nc3ncc(-c4cnc(C(F)(F)F)nc4)cc3Cl)ncc2OCCO)c(C)n1 [Compound I-245] |
| 5.12 | 2.64 | COCc1nc(C)c(-c2cc(Nc3ncc(OCCCC(F)(F)F)cc3Cl)ncc2OCCO)c(C)n1 [Compound I-238] |
| 3.78 | 5.1 | COCc1nc(C)c(-c2cc(Nc3ncc(OC(F)F)cc3Cl)ncc2OCCO)c(C)n1 [Compound I-231] |
| 2.74 | 4.42 | COCc1nc(C)c(-c2cc(Nc3ncc(-c4ncc(OC)cn4)cc3Cl)ncc2OCCO)c(C)n1 [Compound I-253] |
| 2.7 | 5.25 | COCc1nc(C)c(-c2cc(Nc3ncc(-c4ccnc(C(F)(F)F)c4)cc3Cl)ncc2OCCO)c(C)n1 [Compound I-246] |
| 2.3 | 1.35 | COCc1nc(C)c(-c2cc(Nc3ncc(-c4ncc(Cl)cn4)cc3Cl)ncc2OCCO)c(C)n1 [Compound I-239] |
| 2.05 | 1.54 | COCc1nc(C)c(-c2cc(Nc3ncc(-c4nc(C(F)(F)F)co4)cc3Cl)ncc2OCCO)c(C)n1 [Compound I-240] |
| 0.925 | 0.984 | COCc1nc(C)c(-c2cc(Nc3ncc(-c4ccc(Cl)cn4)cc3Cl)ncc2OCCO)c(C)n1 [Compound I-235] |
| 0.799 | 0.637 | COCc1nc(C)c(-c2cc(Nc3ncc(-c4ccc(C#N)cc4)cc3Cl)ncc2OCCO)c(C)n1 [Compound I-241] |
| 0.268 | 1.91 | Cc1cc(C(F)(F)F)cnc1Nc1cc(-c2c(C)cnn2C)c(OCCO)cn1 [Compound I-226] |
| 0.258 | 0.337 | COCc1nc(C)c(-c2cc(Nc3ncc(-c4ccc(C(F)F)cc4)cc3Cl)ncc2OCCO)c(C)n1 [Compound I-242] |
